Where “and” joins values, the source holds several entries; their conditions need not be identical. Equal entries are not always repeated.
Legend:
Test in all cases: normalised viability (% of control), CellTiter-Blue; higher = more viable cells (about 100 = DMSO control)
MFM-223 = conditions: incubation time: 72 h
Procedure, shortened: (§1)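 384-well plates were pre-loaded with compound in 5 µl medium before 20 µl of breast cancer cell suspension was seeded. Following 72 h incubation, 2.5 µl CellTiter-Blue reagent was added for 2 h at 37 °C. Fluorescence was read at 560/590 nm and plates were normalised to vehicle (100) and a positive kill control (0), checked by Z'-factor. Normalised viability is reported at a single listed concentration of the series.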

CAL-148 [1] = conditions: incubation time: 72 h
Procedure, shortened: as §1

BT-474 = conditions: incubation time: 72 h
Procedure, shortened: as §1

Hs578T [2] = conditions: incubation time: 72 h
Procedure, shortened: as §1

CAL-51 [3] = conditions: incubation time: 72 h
Procedure, shortened: as §1

HCC1599 [4] = conditions: incubation time: 72 h
Procedure, shortened: as §1

BT-549 = conditions: incubation time: 72 h
Procedure, shortened: as §1

HDQ-P1 [5] = conditions: incubation time: 72 h
Procedure, shortened: as §1

HCC1937 = conditions: incubation time: 72 h
Procedure, shortened: as §1

HCC1143 = conditions: incubation time: 72 h
Procedure, shortened: as §1

MDA-MB-453 = conditions: incubation time: 72 h
Procedure, shortened: as §1

MDA-MB-468 [6] = conditions: incubation time: 72 h
Procedure, shortened: as §1

MDA-MB-436 [7] = conditions: incubation time: 72 h
Procedure, shortened: as §1

DU-4475 = conditions: incubation time: 72 h
Procedure, shortened: as §1

SK-BR-3 = conditions: incubation time: 72 h
Procedure, shortened: as §1

MDA-MB-231 = conditions: incubation time: 72 h
Procedure, shortened: as §1

CAL-120 [8] = conditions: incubation time: 72 h
Procedure, shortened: as §1

CAL-85-1 [9] = conditions: incubation time: 72 h
Procedure, shortened: as §1

CAL-148 [10] = conditions: incubation time: 72 h; remark: listed apart in the source
Procedure, shortened: as §1

Hs578T [11] = conditions: incubation time: 72 h; remark: listed apart in the source
Procedure, shortened: as §1

CAL-51 [12] = conditions: incubation time: 72 h; remark: listed apart in the source
Procedure, shortened: as §1

HCC1599 [13] = conditions: incubation time: 72 h; remark: listed apart in the source
Procedure, shortened: as §1

HDQ-P1 [14] = conditions: incubation time: 72 h; remark: listed apart in the source
Procedure, shortened: as §1

MDA-MB-468 [15] = conditions: 100 nM; incubation time: 72 h
Procedure, shortened: as §1

MDA-MB-436 [16] = conditions: incubation time: 72 h; remark: listed apart in the source
Procedure, shortened: as §1

CAL-120 [17] = conditions: incubation time: 72 h; remark: listed apart in the source
Procedure, shortened: as §1

CAL-85-1 [18] = conditions: incubation time: 72 h; remark: listed apart in the source
Procedure, shortened: as §1

Nc1cccc2c1CN(C1CCC(=O)NC1=O)C2=O (configuration not stated) [Lenalidomide]
Conditions	normalised viability
BT-474, 10 nM	104% and 109%
BT-474, 1000 nM	117% and 107%
BT-474, 10000 nM	117% and 104%
BT-549, 10 nM	94.5% and 88.9%
BT-549, 1000 nM	94.5% and 95.7%
BT-549, 10000 nM	89.3% and 101%
CAL-51 [3], 3 nM	106% and 108%
CAL-51 [3], 30 nM	99.4% and 99.6%
CAL-51 [3], 100 nM	99.9% and 97.6%
CAL-51 [12], 10 nM	106% and 104%
CAL-85-1 [9], 3 nM	82.3% and 93%
CAL-85-1 [9], 30 nM	76.5% and 84.1%
CAL-85-1 [9], 100 nM	86% and 96.7%
CAL-85-1 [18], 10 nM	88.2% and 90.5%
CAL-120 [8], 10 nM	76% and 81.3%
CAL-120 [8], 1000 nM	80.2% and 81.1%
CAL-120 [8], 10000 nM	84.4% and 80.2%
CAL-120 [17], 100 nM	71.4% and 84.9%
CAL-148 [1], 3 nM	78.6% and 91.8%
CAL-148 [1], 30 nM	86% and 94.3%
CAL-148 [1], 100 nM	86.9% and 89.8%
CAL-148 [10], 10 nM	88% and 92.2%
DU-4475, 3 nM	92.4% and 107%
DU-4475, 30 nM	89.8% and 80.5%
DU-4475, 100 nM	94.3% and 93.8%
HCC1143, 10 nM	76.4% and 66.6%
HCC1143, 1000 nM	89.1% and 70%
HCC1143, 10000 nM	72% and 72.4%
HCC1599 [4], 10 nM	82.8% and 82.1%
HCC1599 [4], 1000 nM	91.9% and 86.6%
HCC1599 [4], 10000 nM	113% and 103%
HCC1599 [13], 100 nM	117% and 96.9%
HCC1937, 10 nM	92.3% and 85.5%
HCC1937, 1000 nM	86.2% and 84.6%
HCC1937, 10000 nM	78.2% and 87.7%
HDQ-P1 [5], 3 nM	95.7% and 91.8%
HDQ-P1 [5], 30 nM	106% and 83.8%
HDQ-P1 [5], 100 nM	92.3% and 86.8%
HDQ-P1 [14], 10 nM	101% and 93.8%
Hs578T [2], 10 nM	107% and 99.5%
Hs578T [2], 1000 nM	111% and 97.7%
Hs578T [2], 10000 nM	100% and 95.5%
Hs578T [11], 100 nM	85.7% and 86.3%
MDA-MB-231, 10 nM	89% and 86.3%
MDA-MB-231, 1000 nM	79.1% and 103%
MDA-MB-231, 10000 nM	92.3% and 103%
MDA-MB-436 [7], 10 nM	98.1% and 99.7%
MDA-MB-436 [7], 1000 nM	85% and 101%
MDA-MB-436 [7], 10000 nM	107% and 112%
MDA-MB-436 [16], 100 nM	80% and 93.4%
MDA-MB-453, 3 nM	107% and 106%
MDA-MB-453, 30 nM	89.3% and 94.9%
MDA-MB-453, 100 nM	96.6% and 103%
MDA-MB-468 [6], 10 nM	103% and 111%
MDA-MB-468 [6], 1000 nM	105% and 99.7%
MDA-MB-468 [6], 10000 nM	93.5% and 106%
MFM-223, 10 nM	87.7% and 85.8%
MFM-223, 1000 nM	90.2% and 96.7%
MFM-223, 10000 nM	100% and 104%
SK-BR-3, 10 nM	104% and 93.7%
SK-BR-3, 1000 nM	94.7% and 95.1%
SK-BR-3, 10000 nM	86.8% and 101%

Conditions	normalised viability
MDA-MB-468 [15]	100% and 94.2%

Cc1nc(Nc2ncc(C(=O)Nc3c(C)cccc3Cl)s2)cc(N2CCN(CCO)CC2)n1 [Dasatinib]
Conditions	normalised viability
BT-474, 1 nM	126% and 102%
BT-474, 100 nM	113% and 96.2%
BT-474, 1000 nM	97.9% and 95.4%
BT-549, 1 nM	102% and 95.4%
BT-549, 100 nM	62.5% and 51.1%
BT-549, 1000 nM	38.9% and 35.7%
CAL-51 [3], 0.3 nM	106% and 112%
CAL-51 [3], 3 nM	92.3% and 93.9%
CAL-51 [3], 10 nM	79.3% and 84.4%
CAL-51 [12], 1 nM	100% and 106%
CAL-85-1 [9], 0.3 nM	97.8% and 95.5%
CAL-85-1 [9], 3 nM	84.2% and 87.7%
CAL-85-1 [9], 10 nM	87.9% and 92.9%
CAL-85-1 [18], 1 nM	100% and 99.7%
CAL-120 [8], 1 nM	93.5% and 85.7%
CAL-120 [8], 100 nM	46% and 38.3%
CAL-120 [8], 1000 nM	26.6% and 22.4%
CAL-120 [17], 10 nM	93.2% and 80.5%
CAL-148 [1], 0.3 nM	97.9% and 80.8%
CAL-148 [1], 3 nM	110% and 85.8%
CAL-148 [1], 10 nM	98.1% and 88.5%
CAL-148 [10], 1 nM	98.7% and 85.7%
DU-4475, 0.3 nM	107% and 83.4%
DU-4475, 3 nM	101% and 97.1%
DU-4475, 10 nM	101% and 95.7%
HCC1143, 1 nM	100% and 78.6%
HCC1143, 100 nM	65.4% and 55%
HCC1143, 1000 nM	48.9% and 37.6%
HCC1599 [4], 1 nM	109% and 107%
HCC1599 [4], 100 nM	103% and 114%
HCC1599 [4], 1000 nM	101% and 100%
HCC1599 [13], 10 nM	105% and 123%
HCC1937, 1 nM	95.7% and 92.3%
HCC1937, 100 nM	53.9% and 78%
HDQ-P1 [5], 0.3 nM	106% and 111%
HDQ-P1 [5], 3 nM	83.8% and 84.8%
HDQ-P1 [14], 1 nM	92.8% and 87.5%
Hs578T [2], 1 nM	108% and 102%
Hs578T [2], 100 nM	55.5% and 45.7%
Hs578T [2], 1000 nM	27% and 24.8%
Hs578T [11], 10 nM	77.6% and 80.5%
MDA-MB-231, 1 nM	87.5% and 81.5%
MDA-MB-231, 100 nM	53% and 40.2%
MDA-MB-231, 1000 nM	40.5% and 34%
MDA-MB-436 [7], 1 nM	91.2% and 105%
MDA-MB-436 [7], 100 nM	64.8% and 56.8%
MDA-MB-436 [7], 1000 nM	40.4% and 30.4%
MDA-MB-436 [16], 10 nM	102% and 88.7%
MDA-MB-453, 0.3 nM	121% and 115%
MDA-MB-453, 3 nM	96.6% and 99.2%
MDA-MB-453, 10 nM	97.7% and 104%
MDA-MB-468 [6], 1 nM	114% and 109%
MDA-MB-468 [6], 100 nM	105% and 100%
MDA-MB-468 [6], 1000 nM	94.6% and 90.4%
MFM-223, 1 nM	96.2% and 96.8%
MFM-223, 100 nM	84.3% and 90.4%
MFM-223, 1000 nM	70.1% and 72%
SK-BR-3, 1 nM	109% and 92.9%
SK-BR-3, 100 nM	112% and 98.6%

Reference: the supplement of paper PMC4862054
